Test results published in patent US11524003B2, “Alpha-amino esters of hydroxypropylthiazolidine carboxamide derivative and salt form, crystal polymorph thereof” (ObsEva S.A., priority 2016, dated 2022).

Experiments:
[1] = test system: PGF2α-induced myometrial contractility; assay: PGF2α-induced contractions of human myometrial biopsies (myograph); details: 6, 60, 600, 6000 nM
Description: Experiments were performed using a DMT Myograph 800 MS (ADINSTRUMENTS™) in oxygenated Kreb's solution with ADI Powerlab software. Once regular contractions had been established for at least 20 minutes, baseline measurements of spontaneous contraction frequency were recorded. The measurement of spontaneous contraction frequency is represented on the x-axis as “Spon.” A DMSO control or compound II was then added to each myometrial sample at the indicated concentrations and the effects of control or compound II on contractile frequency were measured over the ensuing 10-minute period. This time point is represented on the x-axis as “Compound II.” The effects of compound II on contractile frequency in the presence of PGF2α were subsequently measured by challenging the myometrial tissue samples with increasing concentrations of PGF2α (1 nM, 10 nM, and 100 nM) at sequential 10-minute intervals. […] Once regular contractions had been established for at least 20 minutes, baseline measurements of spontaneous work done per contraction were recorded. The measurement of spontaneous work done per contraction is represented on the x-axis as “Spon.” A DMSO control or compound II was then added to each myometrial sample at the indicated concentrations and the effects of control or compound II on work done per contraction were measured over the ensuing 10-minute period. […]

[2] = Stability in HBSS buffer of the Caco-2 experiments; format: in vitro ADME; details: HBSS buffer (2% DMSO final concentration) at 37° C. for 60 and 120 minutes
Description: Stability of both compound I and compound II was assessed during the test. […] An aliquot of each solution was sampled at time zero (t=0) to assess the starting concentrations of the compounds. The solutions were incubated at 37° C. for the duration of the transport experiment. An aliquot of each solution was sampled at the end of experiment (t=120) to assess the final concentrations of compound I and compound II. Samples were analyzed by LC-MS.

Caco-2 cell monolayer = assay: Bidirectional permeability across Caco-2 cell monolayers; format: in vitro ADME, human
Description: (§1) Compound I was dissolved in HBSS buffer (1% DMSO final concentration) at the concentrations of 1.5, 3 and 6 μM. Each concentration/sampling time was run in duplicate well. The test was performed in a gradient pH: the apical compartment (mucosal) was at pH 6.5, the basolateral compartment (serosal) was at pH 7.4.
(§2) Apical to basolateral (A→B, mucosal to serosal) transport: 200 μL of each concentration of compound I was added to the apical compartment and 400 μL of HBSS was added to the basolateral compartment. The plates were incubated at 37° C. An aliquot of the basolateral compartment was sampled after 60 and 120 min (t=60 and t=120). An aliquot of the apical compartment was sampled at the starting time (t=0) and after 120 min. (t=120).
(§3) Basolateral to apical (B→A, serosal to mucosal) transport: 400 μL of each concentration of compound I was added to the basolateral compartment and 200 μL of HBSS was added to the apical compartment. The plates were incubated at 37° C. An aliquot of the apical compartment was sampled after 60 and 120 min (t=60 and t=120). An aliquot of the basolateral compartment was sampled at the starting time (t=0) and after 120 min. (t=120). All samples were analyzed by LC/MS monitoring both compound I and the appearance of compound II.
as §1, with “II” for “I”
as §2, with “II” for “I”
as §3, with “of compound II was added” for “of compound I was added”, “LC/MS monitoring compound II.” for “LC/MS monitoring both compound I and the appearance of compound II.”

SMILES: O=C(N[C@@H](CCO)c1ccc(F)cc1)[C@@H]1SCCN1S(=O)(=O)c1ccc(-c2ccccc2)cc1 [Compound II, 3-([1,1′-biphenyl]-4-ylsulfonyl)-N-[1-(4-fluorophenyl)-3-hydroxypropyl]-1,3-thiazolidine-2-carboxamide]
- Effect on PGF2α-induced myometrial contractility [1]: suppressing both PGF2α-induced and OT-induced myometrial contractility in a dose-dependent fashion
- Stability in HBSS buffer [2]: stable
- Efflux (Caco-2 cell monolayer): No efflux was detected
- Passive passage through the Caco-2 monolayer (Caco-2 cell monolayer): good passive passage
- Passage apical to basolateral (Caco-2 cell monolayer; A→B): good percentage of passage
- Permeability from basolateral to apical compartment (Caco-2 cell monolayer; B→A): low rate of permeability
